Measurements taken from patent publication US20260285850A1, “SUBSTITUTED OXAZOLIDINONES AND IMIDAZOLINONES AS HERBICIDES” (FMC CORPORATION, priority 2023, published 2026).

Tests used:
Format in all cases: in vivo
[1] = system: green foxtail (Setaria viridis); assay: Test A postemergence application, visual injury rating 0-100
Summary of the method: (§1)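 Rating: visual, day 10, untreated plants as reference, 0 no effect to 100 full control. Plants were in loam-sand and were treated either preemergence via directed soil spray or postemergence at the one- to two-leaf stage.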

[2] = system: blackgrass (Alopecurus myosuroides); assay: as above
Summary of the method: as §1

kochia (Bassia scoparia) [3] = assay: as above
Summary of the method: as §1

corn (Zea mays) [4] = assay: as above
Summary of the method: as §1

[5] = system: ragweed (common ragweed, Ambrosia artemisiifolia); assay: as above
Summary of the method: as §1

soybean (Glycine max) [6] = assay: as above
Summary of the method: as §1

[7] = system: palmer (palmer amaranth, palmer pigweed, Amaranthus palmeri); assay: as above
Summary of the method: as §1

[8] = system: barnyardgrass (Echinochloa crus-galli); assay: as above
Summary of the method: as §1

[9] = system: ryegrass, Italian (italian ryegrass, Lolium multiflorum); assay: as above
Summary of the method: as §1

[10] = system: wheat (Triticum aestivum); assay: as above
Summary of the method: as §1

[11] = system: galium (catchweed bedstraw, Galium aparine); assay: as above
Summary of the method: as §1

[12] = system: oat, wild (wild oat, Avena fatua); assay: as above
Summary of the method: as §1

[13] = system: barnyardgrass (Echinochloa crusgalli); assay: Test B flooded paddy test, visual plant response rating 0-100; details: 250 g ai/ha, Flood, applied to paddy water, evaluated after 13 days
Summary of the method: (§2)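 Visual evaluation after 13 days. Water-applied treatment, 3 cm flood depth held constant, plants at 2-leaf stage at treatment.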

[14] = system: ducksalad (Heteranthera limosa); assay: as above; details: 250 g ai/ha, Flood, applied to paddy water, evaluated after 13 days
Summary of the method: as §2

rice (Oryza sativa) = assay: as above; details: 250 g ai/ha, Flood, applied to paddy water, evaluated after 13 days
Summary of the method: as §2

[15] = system: sedge, umbrella (small-flower umbrella sedge, Cyperus difformis); assay: as above; details: 250 g ai/ha, Flood, applied to paddy water, evaluated after 13 days
Summary of the method: as §2

[16] = system: green foxtail (Setaria viridis); assay: Test A preemergence soil spray, visual injury rating 0-100; details: 10 days
Summary of the method: as §1

[17] = system: blackgrass (Alopecurus myosuroides); assay: as above; details: 10 days
Summary of the method: as §1

kochia (Bassia scoparia) [18] = assay: as above; details: 10 days
Summary of the method: as §1

corn (Zea mays) [19] = assay: as above; details: 10 days
Summary of the method: as §1

[20] = system: ragweed (common ragweed, Ambrosia artemisiifolia); assay: as above; details: 10 days
Summary of the method: as §1

soybean (Glycine max) [21] = assay: as above; details: 10 days
Summary of the method: as §1

[22] = system: palmer (palmer amaranth, palmer pigweed, Amaranthus palmeri); assay: as above; details: 10 days
Summary of the method: as §1

[23] = system: barnyardgrass (Echinochloa crus-galli); assay: as above; details: 10 days
Summary of the method: as §1

[24] = system: ryegrass, Italian (italian ryegrass, Lolium multiflorum); assay: as above; details: 10 days
Summary of the method: as §1

[25] = system: wheat (Triticum aestivum); assay: as above; details: 10 days
Summary of the method: as §1

[26] = system: oat, wild (wild oat, Avena fatua); assay: as above; details: 10 days
Summary of the method: as §1

[27] = 62 g ai/ha, postemergence, 10 days, 0 = no effect, 100 = complete control
[28] = Postemergence, 16 g ai/ha, greenhouse 10 days, 0 no effect, 100 complete control
[29] = 62 g ai/ha, 0 = no effect, 100 = complete control

COC(=O)C1=CCC(NC(=O)C2(C)CN(c3cc(F)c(F)c(F)c3)C(=O)O2)C1 (mixture of isomers) [Compound 163]
Foxtail, Green plant response rating (0-100) [1, 27]: 90 | Foxtail, Green plant response rating (0 to 100 scale) [1, 28]: 50 | Blackgrass plant response rating (0-100) [2, 27]: 70 | Blackgrass plant response rating (0 to 100 scale) [2, 28]: 20 | Kochia plant response rating (0-100) (kochia (Bassia scoparia) [3]; [27]): 90 | Kochia plant response rating (0 to 100 scale) (kochia (Bassia scoparia) [3]; [28]): 20 | Corn plant response rating (0-100) (corn (Zea mays) [4]; [27]): 100 | Corn plant response rating (0 to 100 scale) (corn (Zea mays) [4]; [28]): 90 | Ragweed plant response rating (0-100) [5, 27]: 0 | Ragweed plant response rating (0 to 100 scale) [5, 28]: 0 | Soybean plant response rating (0-100) (soybean (Glycine max) [6]; [27]): 70 | Soybean plant response rating (0 to 100 scale) (soybean (Glycine max) [6]; [28]): 50 | Pigweed, Palmer plant response rating (0-100) [7, 27]: 80 | Pigweed, Palmer plant response rating (0 to 100 scale) [7, 28]: 10 | Barnyardgrass plant response rating (0-100) [8, 27]: 100 | Barnyardgrass plant response rating (0 to 100 scale) [8, 28]: 70 | Ryegrass, Italian plant response rating (0-100) [9, 27]: 80 | Ryegrass, Italian plant response rating (0 to 100 scale) [9, 28]: 60 | Wheat plant response rating (0-100) [10, 27]: 70 | Wheat plant response rating (0 to 100 scale) [10, 28]: 30 | Galium plant response rating (0-100) [11, 27]: 70 | Galium plant response rating (0 to 100 scale) [11, 28]: 40 | Oat, Wild plant response rating (0-100) [12, 27]: 90 | Oat, Wild plant response rating (0 to 100 scale) [12, 28]: 30 | Plant response rating, Barnyardgrass (0 to 100 scale, 0 is no effect and 100 is complete control) [13]: 55 | Plant response rating, Ducksalad (0 to 100 scale, 0 is no effect and 100 is complete control) [14]: 85 | Plant response rating, Rice (0 to 100 scale, 0 is no effect and 100 is complete control) (rice (Oryza sativa)): 60 | Plant response rating, Sedge, Umbrella (0 to 100 scale, 0 is no effect and 100 is complete control) [15]: 85 | Foxtail, Green plant response rating ([16]; 16 g ai/ha, 0 to 100 scale): 0 | Foxtail, Green plant response rating (0-100) [16, 29]: 20 | Blackgrass plant response rating ([17]; 16 g ai/ha, 0 to 100 scale): 0 | Blackgrass plant response rating (0-100) [17, 29]: 0 | Kochia plant response rating (kochia (Bassia scoparia) [18]; 16 g ai/ha, 0 to 100 scale): 0 | Kochia plant response rating (0-100) (kochia (Bassia scoparia) [18]; [29]): 0 | Corn plant response rating (corn (Zea mays) [19]; 16 g ai/ha, 0 to 100 scale): 0 | Corn plant response rating (0-100) (corn (Zea mays) [19]; [29]): 70 | Ragweed plant response rating ([20]; 16 g ai/ha, 0 to 100 scale): 0 | Ragweed plant response rating (0-100) [20, 29]: 10 | Soybean plant response rating (soybean (Glycine max) [21]; 16 g ai/ha, 0 to 100 scale): 0 | Soybean plant response rating (0-100) (soybean (Glycine max) [21]; [29]): 0 | Pigweed, Palmer plant response rating ([22]; 16 g ai/ha, 0 to 100 scale): 0 | Pigweed, Palmer plant response rating (0-100) [22, 29]: 0 | Barnyardgrass plant response rating ([23]; 16 g ai/ha, 0 to 100 scale): 0 | Barnyardgrass plant response rating (0-100) [23, 29]: 20 | Ryegrass, Italian plant response rating ([24]; 16 g ai/ha, 0 to 100 scale): 0 | Ryegrass, Italian plant response rating (0-100) [24, 29]: 80 | Wheat plant response rating ([25]; 16 g ai/ha, 0 to 100 scale): 20 | Wheat plant response rating (0-100) [25, 29]: 80 | Oat, Wild plant response rating ([26]; 16 g ai/ha, 0 to 100 scale): 0 | Oat, Wild plant response rating (0-100) [26, 29]: 20
